Where two headings read alike, the source gives them in different places.
Assays:
[1] = target: LXR α LBD protein (Homo sapiens (Human), UniProt Q13133); test: LXR α radioligand binding assay (SPA, competition with [3H]TO901317); settings: read-out: LXRα Binding Ki
[2] = target: LXR β LBD protein (Homo sapiens (Human), UniProt P55055); test: biochemical; assay type: binding
[3] = target: Gal4 DNA binding domain fused to the LBD of LXRα in HEK293 cells (Homo sapiens (Human), UniProt Q13133); test: LXR luciferase transcriptional reporter gene assay, agonist mode, LXRα; assay type: cell-based; settings: for EC50: read-out: Cell LXRα EC50
[4] = target: Gal4 DNA binding domain fused to the LBD of LXRβ in HEK293 cells (Homo sapiens (Human), UniProt P55055); test: cell-based
[5] = agonist mode, read-out: Cell LXRβ EC50
[6] = Biological Test Example 1, read-out: LXRβ Binding Ki
[7] = Biological Test Example 2, agonist mode
[8] = Biological Test Example 2, agonist mode, read-out: Cell LXRβ EC50

Sequence of Gal4 DNA binding domain fused to the LBD of LXRα in HEK293 cells (Q13133 209-447): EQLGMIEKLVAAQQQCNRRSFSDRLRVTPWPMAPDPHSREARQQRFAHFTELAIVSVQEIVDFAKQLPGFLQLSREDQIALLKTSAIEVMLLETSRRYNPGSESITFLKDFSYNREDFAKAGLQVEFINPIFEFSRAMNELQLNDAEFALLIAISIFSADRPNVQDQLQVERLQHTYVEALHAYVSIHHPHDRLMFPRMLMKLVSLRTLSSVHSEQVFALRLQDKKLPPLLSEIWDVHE
Sequence of LXR α LBD protein (Q13133 209-447): as above
Sequence of Gal4 DNA binding domain fused to the LBD of LXRβ in HEK293 cells (P55055 222-460 limits assumed): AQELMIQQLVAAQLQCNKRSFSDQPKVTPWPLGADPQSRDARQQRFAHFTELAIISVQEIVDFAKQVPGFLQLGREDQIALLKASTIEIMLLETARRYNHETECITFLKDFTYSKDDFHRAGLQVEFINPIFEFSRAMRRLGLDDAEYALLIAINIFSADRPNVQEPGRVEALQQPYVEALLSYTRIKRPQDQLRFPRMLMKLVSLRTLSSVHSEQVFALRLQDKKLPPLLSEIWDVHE
Sequence of LXR β LBD protein (P55055 222-460 limits assumed): as above

| SMILES | Ki [1] | Ki ([2]; read-out: LXRβ Binding Ki) | Cell LXRα efficacy [3] | EC50 [3] | Cell LXRβ efficacy ([4]; agonist mode) | EC50 [4, 5] | Ki [2, 6] | Cell LXRβ efficacy [4, 7] | EC50 [4, 8] | EC50 [3, 7] | EC50 [4] | Cell LXRβ efficacy [4] | Ki [2] |
| --- | --- | --- | --- | --- | --- | --- | --- | --- | --- | --- | --- | --- | --- |
| CS(=O)(=O)c1cc(N2CCN(C[C@H]3CC[C@H](C(F)(F)F)CC3)[C@H](c3ccccc3)C2)ccc1CO (single isomer, unassigned) [48-44] | 10800 nM | 972 nM | 11556 (50) % | 11600 nM | 34% | 3100 nM |  |  |  |  |  |  |  |
| CS(=O)(=O)c1cc(N2CCN(C[C@H]3CC[C@H](C(F)(F)F)CC3)[C@@H](c3ccccc3)C2)ccc1CO (single isomer, unassigned) [48-45] | 75 nM |  | 431 (65) % | 431 nM |  |  | 21 nM | 33% | 140 nM |  |  |  |  |
| CS(=O)(=O)c1cccc(N2CCN(CC3(F)CCN(CC(F)(F)F)CC3)[C@@H](c3ccccc3)C2)c1 (single isomer, unassigned) [48-53] | 2180 nM |  | 2169 (43) % |  |  |  | 259 nM | 711 (20) % |  | 2170 nM | 711 nM |  |  |
| CS(=O)(=O)c1cccc(N2CCN(CC3(F)CCN(CC(F)(F)F)CC3)[C@H](c3ccccc3)C2)c1 (single isomer, unassigned) [48-54] | > 3330 nM |  |  |  |  |  | 2390 nM |  |  | > 20000 nM | > 20000 nM |  |  |
| CS(=O)(=O)c1cccc(N2CCN(CC3CCN(CC(F)(F)F)CC3)[C@@H](c3ccccc3Cl)C2)c1 (single isomer, unassigned) [48-55] | 277 nM | 67 nM | 2129 (42) % | 2130 nM |  |  |  |  |  |  | 547 nM | 547 (19) % |  |
| CC(C)[C@H]1CC[C@H](CN2CCN(c3ccc(CO)c(S(C)(=O)=O)c3)C[C@@H]2c2ccccc2)CC1 (single isomer, unassigned) [48-77] | 131 nM |  | 789 (53) % | 789 nM |  |  | 23 nM | 23% | 360 nM |  |  |  |  |
| CC(C)[C@H]1CC[C@H](CN2CCN(c3ccc(CO)c(S(C)(=O)=O)c3)C[C@H]2c2ccccc2)CC1 (single isomer, unassigned) [48-78] | 30700 nM |  | 10997 (14) % | 11000 nM |  |  | 2460 nM | 10% | 8340 nM |  |  |  |  |
| NS(=O)(=O)c1cccc(N2CCN(CC3CCN(CC(F)(F)F)CC3)[C@@H](c3ccccc3)C2)c1 (single isomer, unassigned) [48-81] | 2300 nM |  | 1964 (37) % |  |  |  | 479 nM | 822 (9) % |  | 1960 nM | 822 nM |  |  |
| NS(=O)(=O)c1cccc(N2CCN(CC3CCN(CC(F)(F)F)CC3)[C@H](c3ccccc3)C2)c1 (single isomer, unassigned) [48-82] | 7400 nM |  |  |  |  |  | 2490 nM |  |  | > 20000 nM | > 20000 nM |  |  |
| CS(=O)(=O)c1cccc(N2CCN(C[C@H]3CC[C@@H](C(F)(F)F)OC3)[C@@H](c3ccc(F)cc3)C2)c1 (single isomer, unassigned) [49-9] | 1210 nM |  | 1643 (32) % | 1640 nM |  |  |  | 575 (23) % |  |  | 575 nM |  | 150 nM |
| CS(=O)(=O)c1cccc(N2CCN(C[C@H]3CCC(C(F)(F)F)OC3)[C@@H](c3ccc(F)cc3)C2)c1 (single isomer, unassigned) [49-10] | 438 nM |  | 1575 (67) % | 1570 nM |  |  |  | 376 (37) % |  |  | 376 nM |  | 53 nM |
| CS(=O)(=O)c1cccc(N2CCN(C[C@@H]3CCC(C(F)(F)F)OC3)[C@@H](c3ccc(F)cc3)C2)c1 (single isomer, unassigned) [49-12] | 1770 nM |  | 2637 (51) % | 2640 nM |  |  |  | 522 (25) % |  |  | 522 nM |  | 184 nM |
| CS(=O)(=O)c1cc(N2CCN(C[C@H]3CC[C@@H](C(F)(F)F)CC3)[C@H](c3ccccc3)C2)ccc1C#N (single isomer, unassigned) [50-5] | 6550 nM |  | 10000 (7) % | 10000 nM |  |  | 688 nM | 11% | 997 nM |  |  |  |  |
| CS(=O)(=O)c1cc(N2CCN(C[C@H]3CC[C@@H](C(F)(F)F)CC3)[C@@H](c3ccccc3)C2)ccc1C#N (single isomer, unassigned) [50-6] | 241 nM |  | 429 (81) % | 429 nM |  |  | 58 nM | 53% | 226 nM |  |  |  |  |
| CO[C@H]1CC[C@H](CN2CCN(c3ccc(CO)c(S(C)(=O)=O)c3)C[C@@H]2C(C)C)CC1 (single isomer, unassigned) [51-6] | 2800 nM |  | 1772 (45) % | 1770 nM |  |  | 543 nM | 45% | 400 nM |  |  |  |  |
| CS(=O)(=O)c1cc(N2CCN(C[C@H]3CC[C@@H](C(F)(F)F)CC3)[C@@H](c3ccccc3Cl)C2)ccc1C(N)=O (single isomer, unassigned) [Cpd No 4-8] | 443 nM | 80 nM | 782 (91) % | 782 nM |  |  |  |  |  |  | 545 nM | 545 (59) % |  |
| CS(=O)(=O)c1cc(N2CCN(C[C@H]3CC[C@@H](C(F)(F)F)CC3)[C@H](c3ccccc3Cl)C2)ccc1C(N)=O (single isomer, unassigned) [Cpd No 4-9] | 3650 nM | 926 nM | 15695 (21) % | 15700 nM |  |  |  |  |  |  | 5050 nM | 5047 (31) % |  |
| CS(=O)(=O)c1cccc(N2CCN(C[C@H]3CC[C@](C)(O)CC3)[C@@H](c3ccccc3)C2)c1 (single isomer, unassigned) [Cpd No 48-7] | 4530 nM | 465 nM | 4661 (6) % | 4660 nM |  | > 20000 nM |  |  |  |  |  |  |  |
| CS(=O)(=O)c1cccc(N2CCN(C[C@H]3CC[C@](C)(O)CC3)[C@H](c3ccccc3)C2)c1 (single isomer, unassigned) [Cpd No 48-8] | > 3330 nM | > 2500 nM |  | > 20000 nM |  | > 20000 nM |  |  |  |  |  |  |  |
| CO[C@]1(C(F)(F)F)CC[C@@H](CN2CCN(c3ccc(CO)c(S(C)(=O)=O)c3)C[C@@H]2C(C)C)CC1 (single isomer, unassigned) [Cpd No 48-79] | 5 nM |  | 6 (58) % |  |  |  | 2 nM | 1 (115) % |  | 6 nM | 1 nM |  |  |
| CO[C@]1(C(F)(F)F)CC[C@H](CN2CCN(c3ccc(CO)c(S(C)(=O)=O)c3)C[C@@H]2C(C)C)CC1 (single isomer, unassigned) [Cpd No 48-80] | 30 nM |  | 27 (73) % |  |  |  | 3 nM | 18 (99) % |  | 27 nM | 18 nM |  |  |
| CC(C)[C@H]1CN(c2ccc(CO)c(S(C)(=O)=O)c2)CCN1C[C@H]1CC[C@H](C(F)(F)F)OC1 (single isomer, unassigned) [Cpd No 49-2] | 194 nM | 23 nM | 122 (63) % | 122 nM |  |  |  |  |  |  | 78 nM | 78 (83) % |  |
| CC(C)[C@H]1CN(c2cccc(S(C)(=O)=O)c2)CCN1C[C@H]1CC[C@@H](C(F)(F)F)OC1 (single isomer, unassigned) [Cpd No 49-5] | 421 nM |  | 578 (64) % | 578 nM |  |  |  |  |  |  | 266 nM | 266 (77) % | 70 nM |
| CC(C)[C@H]1CN(c2cccc(S(C)(=O)=O)c2)CCN1C[C@H]1CC[C@H](C(F)(F)F)OC1 (single isomer, unassigned) [Cpd No 49-6] | 216 nM | 46 nM | 442 (56) % | 442 nM |  |  |  |  |  |  | 114 nM | 114 (67) % |  |
| CC(C)[C@H]1CN(c2cccc(S(C)(=O)=O)c2)CCN1C[C@@H]1CC[C@@H](C(F)(F)F)OC1 (single isomer, unassigned) [Cpd No 49-7] | 333 nM | 45 nM | 523 (82) % | 523 nM |  |  |  |  |  |  | 132 nM | 132 (76) % |  |
| CC(C)[C@H]1CN(c2cccc(S(C)(=O)=O)c2)CCN1C[C@@H]1CC[C@H](C(F)(F)F)OC1 (single isomer, unassigned) [Cpd No 49-8] | 84 nM | 11 nM | 103 (79) % | 103 nM |  |  |  |  |  |  | 36 nM | 36 (93) % |  |
| CO[C@H]1CC[C@@H](CN2CCN(c3ccc(CO)c(S(C)(=O)=O)c3)C[C@@H]2C(C)C)CC1 (single isomer, unassigned) [Cpd No 51-7] | 303 nM | 51 nM | 154 (80) % | 154 nM |  |  |  | 42 (84) % |  |  | 42 nM |  |  |
| CC(C)[C@@H]1CN(c2ccc(C(N)=O)c(S(C)(=O)=O)c2Cl)CCN1c1nccc(C(F)(F)F)n1 [4-3, (R)-3-chloro-4-(3-isopropyl-4-(4-(trifluoromethyl)pyrimidin-2-yl)piperazin-1-yl)-2-(methylsulfonyl)benzamide] | > 3330 nM | > 2500 nM |  | > 20000 nM | 1679 (12) % |  |  |  |  |  | 1680 nM |  |  |

— US10144715B2, “Piperazine derivatives as liver X receptor modulators” (priority 2014, dated 2018)
